Results on 16 compounds are retold here after PubChem BioAssay (NCI).

Among the test systems are COLO 205 colon; MDA-MB-231 breast; MDA-MB-435; NCI-H522 lung; OVCAR-3 ovarian; PC-3 prostate; SF-295 CNS.
Holding throughout (assay): inhibition of tumour cell growth, NCI panel, 48 h

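Values below derive from 48-hour exposures of cells grown in 96-well plates, with endpoints linearly interpolated between the two concentrations bracketing the appropriate inhibition level. At the GI50, growth is halved. Definition used: TGI = concentration required for complete inhibition of growth.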

For `c1ccc2nc3c(cc4ccccn43)nc2c1`, the GI50 was 64 µM in the assay with COLO 205 colon; 29.8 µM in the assay with MDA-MB-231 breast; above 100 µM in the assay on MDA-MB-435; 21.5 µM in the assay with NCI-H522 lung; above 100 µM with OVCAR-3 ovarian; 63.7 µM with PC-3 prostate. In addition, the GI50 in the assay with SF-295 CNS is 49.8 µM. Further, the TGI in the assay on COLO 205 colon, with MDA-MB-231 breast, in the assay with MDA-MB-435, with NCI-H522 lung, in the assay on OVCAR-3 ovarian and in the assay with PC-3 prostate was above 100 µM throughout. The TGI with SF-295 CNS was above 100 µM.
In the case of `O=S(=O)(CCOCc1ccc(-c2ccc3ncnc(Nc4ccc(OCc5cccc(F)c5)c(Cl)c4)c3c2)o1)c1ccccc1`, the GI50 with COLO 205 colon, in the assay on MDA-MB-231 breast, with MDA-MB-435, in the assay with NCI-H522 lung, with OVCAR-3 ovarian and in the assay with PC-3 prostate was above 25 µM throughout. Also, the GI50 in the assay with SF-295 CNS was above 25 µM. Also, the TGI in the assay on COLO 205 colon, in the assay on MDA-MB-231 breast, with MDA-MB-435, in the assay with NCI-H522 lung, in the assay on OVCAR-3 ovarian and in the assay with PC-3 prostate was above 25 µM in each case. Also, the TGI in the assay on SF-295 CNS was above 25 µM.
For `O=S1(=O)NCCCN1CCNc1nccc(-c2c(-c3cccc(O)c3)nc3sccn23)n1`, the GI50 in the assay on COLO 205 colon is 0.581 µM; in the assay with MDA-MB-231 breast, 16.1 µM; with MDA-MB-435 it was 0.563 µM; in the assay with NCI-H522 lung, 14.6 µM; in the assay on OVCAR-3 ovarian, 19.4 µM; with PC-3 prostate, 45 µM. In addition, in the assay on SF-295 CNS, the GI50 is 51.9 µM. In addition, the TGI in the assay on COLO 205 colon was 27.4 µM; in the assay with MDA-MB-231 breast, above 100 µM; in the assay with MDA-MB-435, above 100 µM; with NCI-H522 lung, 80.7 µM; in the assay on OVCAR-3 ovarian, above 100 µM; in the assay on PC-3 prostate, above 100 µM. The compound further gave a TGI with SF-295 CNS above 100 µM.
With `CCCCCCCCCCCC[n+]1ccccc1` (tested in a mixture with another compound), the GI50 with COLO 205 colon was 0.404 µM; with MDA-MB-231 breast it was 1.22 µM; in the assay with MDA-MB-435 it was 0.678 µM; in the assay on NCI-H522 lung, 0.855 µM; in the assay with OVCAR-3 ovarian it was 0.722 µM; with PC-3 prostate, 0.208 µM. In addition, the GI50 in the assay on SF-295 CNS is 0.712 µM. For the same compound, the TGI in the assay with COLO 205 colon was 1.52 µM; in the assay with MDA-MB-231 breast, 3.37 µM; in the assay on MDA-MB-435, 2.47 µM; with NCI-H522 lung, 5.42 µM; in the assay with OVCAR-3 ovarian it was 2.44 µM; with PC-3 prostate, 0.937 µM. Also, in the assay with SF-295 CNS, the TGI turned out to be 2.52 µM.
Take `NC(=O)C1(N2CCCCC2)CCN(CCCC(=O)c2ccc(F)cc2)CC1`: the GI50 with COLO 205 colon was 0.715 µM; in the assay on MDA-MB-231 breast, 3.56 µM; in the assay with MDA-MB-435, 0.07 µM; in the assay with NCI-H522 lung, 0.0965 µM; with OVCAR-3 ovarian, 0.117 µM; in the assay on PC-3 prostate, 2.33 µM. For the same compound, the GI50 in the assay with SF-295 CNS was 2.7 µM. For the same compound, the TGI with COLO 205 colon is 6.89 µM; in the assay with MDA-MB-231 breast, above 71.8 µM; with MDA-MB-435 it was 0.396 µM; in the assay on OVCAR-3 ovarian, 1.58 µM; with PC-3 prostate, above 100 µM; with SF-295 CNS, above 100 µM.
`Cn1c2ccccc2c2c(=O)c3ccccc3[nH]c21`: the GI50 with COLO 205 colon was 55.8 µM; in the assay on MDA-MB-231 breast, 87.1 µM; in the assay with MDA-MB-435, 70.2 µM; in the assay with NCI-H522 lung, above 100 µM; in the assay with OVCAR-3 ovarian, above 100 µM; in the assay on PC-3 prostate, 27.5 µM. Further, the GI50 in the assay on SF-295 CNS is 82.8 µM. Also, the TGI with COLO 205 colon is above 100 µM; in the assay with MDA-MB-231 breast, above 100 µM; in the assay on MDA-MB-435, above 100 µM; in the assay on NCI-H522 lung, above 100 µM; in the assay on OVCAR-3 ovarian, above 100 µM; in the assay on PC-3 prostate, 73.2 µM. The compound also gave a TGI with SF-295 CNS above 100 µM.
Regarding `CNC(=O)c1cc2c(Oc3ccc(NC(=O)C4(C(=O)Nc5ccc(F)cc5)CC4)cc3)ccnc2cc1OC`, the GI50 in the assay on COLO 205 colon was 2.23 µM; in the assay with MDA-MB-231 breast, 2.41 µM; in the assay on MDA-MB-435 it was 2.28 µM; in the assay with NCI-H522 lung, 2.51 µM; with OVCAR-3 ovarian, 3.48 µM; in the assay with PC-3 prostate, 3.09 µM. In addition, in the assay on SF-295 CNS, the GI50 is 0.177 µM. Besides, the TGI with COLO 205 colon was 9.13 µM; with MDA-MB-231 breast, above 100 µM; in the assay on MDA-MB-435 it was 6.64 µM; with NCI-H522 lung, above 100 µM; in the assay on OVCAR-3 ovarian, above 100 µM; in the assay with PC-3 prostate it was above 100 µM. In addition, the TGI with SF-295 CNS came out at 6.26 µM.
Take `Cn1c([N+](=O)[O-])cnc1/C=C1\Oc2cc(Cl)ccc2C1=O`: the GI50 is 0.742 µM in the assay on COLO 205 colon; 0.94 µM in the assay on MDA-MB-231 breast; 0.26 µM in the assay on MDA-MB-435; 0.679 µM with NCI-H522 lung; 0.441 µM in the assay with OVCAR-3 ovarian; 1.36 µM with PC-3 prostate. Also, in the assay on SF-295 CNS, the GI50 is 2.72 µM. For the same compound, the TGI in the assay with COLO 205 colon is 3.59 µM; in the assay on MDA-MB-231 breast, above 28.5 µM; with MDA-MB-435 it was 1.05 µM; in the assay on NCI-H522 lung it was 2.36 µM; in the assay with OVCAR-3 ovarian, 2.31 µM; with PC-3 prostate, above 24.1 µM. For the same compound, the TGI in the assay on SF-295 CNS was above 42.7 µM.
For `CCSc1nc(N)c2cn[nH]c2n1`, the GI50 with COLO 205 colon was 23.5 µM; in the assay on MDA-MB-231 breast, 20.2 µM; in the assay on MDA-MB-435, 30.8 µM; in the assay on NCI-H522 lung, 62 µM; in the assay with OVCAR-3 ovarian, 22.1 µM; in the assay on PC-3 prostate it was 19.8 µM. Moreover, the GI50 with SF-295 CNS is 32.1 µM. Besides, the TGI with COLO 205 colon was 53.9 µM; in the assay with MDA-MB-231 breast it was 69.8 µM; in the assay on MDA-MB-435, above 100 µM; in the assay on NCI-H522 lung, above 100 µM; with OVCAR-3 ovarian, 72.1 µM; in the assay with PC-3 prostate, 63.5 µM. The TGI in the assay on SF-295 CNS is 85.3 µM.
With `NC(=O)c1cccc(Nc2nccc(Nc3cccc(F)c3)n2)c1`, the GI50 in the assay on COLO 205 colon was 6.73 µM; with MDA-MB-231 breast it was 17.5 µM; in the assay on MDA-MB-435 it was 6.15 µM; with NCI-H522 lung it was 5.82 µM; in the assay on OVCAR-3 ovarian it was 10 µM; in the assay with PC-3 prostate, 8.39 µM. Also, in the assay on SF-295 CNS, the GI50 was 9.82 µM. Further, the TGI was above 17.9 µM with COLO 205 colon; above 25 µM with MDA-MB-231 breast; above 25 µM in the assay on MDA-MB-435; above 23.8 µM with NCI-H522 lung; above 25 µM in the assay on OVCAR-3 ovarian; above 25 µM in the assay on PC-3 prostate. Besides, the TGI in the assay on SF-295 CNS is above 25 µM.
Turning to `O=C1C(SCCO)=C(SCCO)C(=O)c2ccccc21`, the TGI in the assay on COLO 205 colon was found to be 3.27 µM; in the assay on MDA-MB-231 breast, 4.15 µM; in the assay on MDA-MB-435 it was 0.348 µM; with NCI-H522 lung, 3.56 µM; in the assay on OVCAR-3 ovarian, 3.22 µM; in the assay with PC-3 prostate it was 6.1 µM. In the assay with SF-295 CNS, this compound had a TGI of 2.97 µM.
As for `CCN(CC)CCNC(=O)c1cn2ncnc(Oc3ccc(NC(=O)Nc4ccc(Cl)c(C(F)(F)F)c4)c(F)c3)c2c1C`, the GI50 was 1.44 µM in the assay with COLO 205 colon; 1.63 µM in the assay with MDA-MB-231 breast; 1.57 µM in the assay on MDA-MB-435; 2.03 µM with NCI-H522 lung; 1.77 µM with OVCAR-3 ovarian; 1.53 µM with PC-3 prostate. Also, in the assay on SF-295 CNS, the GI50 is 1.66 µM. Also, the TGI in the assay on COLO 205 colon was 3.16 µM; in the assay with MDA-MB-231 breast, 3.28 µM; with MDA-MB-435, 3.02 µM; in the assay with NCI-H522 lung it was 4.13 µM; in the assay with OVCAR-3 ovarian it was 3.21 µM; in the assay with PC-3 prostate it was 3.3 µM. This compound also gave a TGI in the assay with SF-295 CNS of 3.07 µM.
As to `CC1CCCc2c1nn(C(=O)/C=C(\N)c1ccccc1)c2N` (centres undefined), the GI50 with COLO 205 colon is 10.1 µM; in the assay on MDA-MB-231 breast, 28.3 µM; with MDA-MB-435, 10.7 µM; in the assay on NCI-H522 lung, 13.6 µM; in the assay on OVCAR-3 ovarian, 5.61 µM; with PC-3 prostate, 6.54 µM. For the same compound, the GI50 with SF-295 CNS is 30.6 µM. Besides, the TGI in the assay with COLO 205 colon is 79.1 µM; in the assay with MDA-MB-231 breast, above 100 µM; in the assay with MDA-MB-435, 26.5 µM; in the assay with NCI-H522 lung, 61.7 µM; in the assay with OVCAR-3 ovarian it was 32.6 µM; with PC-3 prostate it was above 100 µM. The TGI in the assay on SF-295 CNS was above 100 µM.
`OC(c1ccc(Br)cc1)(c1cccs1)C1CC1` (centres undefined): the TGI amounted to 36.6 µM in the assay on COLO 205 colon; 39.6 µM in the assay on MDA-MB-231 breast; 36.1 µM in the assay on MDA-MB-435; 40.9 µM in the assay with NCI-H522 lung; 35.9 µM in the assay with OVCAR-3 ovarian; 52.8 µM in the assay with PC-3 prostate. In addition, in the assay with SF-295 CNS, the TGI amounted to 44.6 µM.
Consider `Cc1ncc(C(=O)Nc2ccc(CN3CCN(C)CC3)c(C(F)(F)F)c2)cc1C#Cc1cnc(NC2CC2)c2ncccc12`, for which the GI50 in the assay with COLO 205 colon is 1.36 µM; in the assay on MDA-MB-231 breast, 0.582 µM; with MDA-MB-435, 0.513 µM; with NCI-H522 lung it was 0.635 µM; in the assay on OVCAR-3 ovarian, 0.693 µM; with PC-3 prostate it was 0.597 µM. Moreover, the GI50 with SF-295 CNS was 0.747 µM. The TGI in the assay on COLO 205 colon is 4.51 µM; in the assay with MDA-MB-231 breast, 1.12 µM; in the assay with MDA-MB-435, 0.963 µM; in the assay with NCI-H522 lung it was 1.23 µM; with OVCAR-3 ovarian it was 1.28 µM; in the assay on PC-3 prostate, 1.17 µM. Also, the TGI in the assay with SF-295 CNS amounted to 1.68 µM.
With `CCCCCCCCCCN=C(c1ccc(N(C)C)cc1)c1ccc(N(C)C)cc1`, the GI50 in the assay on COLO 205 colon was 0.933 µM; with MDA-MB-231 breast, 0.876 µM; in the assay with MDA-MB-435 it was 0.0726 µM; in the assay on NCI-H522 lung it was 0.352 µM; in the assay on OVCAR-3 ovarian, 0.428 µM; in the assay on PC-3 prostate, 2.71 µM. In the assay with SF-295 CNS, the GI50 was 0.63 µM. The TGI in the assay with COLO 205 colon is 15.7 µM; in the assay with MDA-MB-231 breast it was 23.9 µM; in the assay on MDA-MB-435 it was 0.332 µM; in the assay on NCI-H522 lung it was 5.94 µM; in the assay on OVCAR-3 ovarian, above 24.9 µM; with PC-3 prostate, above 86 µM. The compound further came in with a TGI in the assay with SF-295 CNS of 13.7 µM.
